From patent US7005258B1, “Cdc25 genes, encoded products and uses thereof” (The National Institutes of Health, priority 1991, dated 2006)

Molecular target: T1, GST-cdc25A phosphatase (Homo sapiens, UniProt P30304)
T1 construct: made in house; host or cells: E. coli BL21(DE3)
T1 sequence (P30304 1-524): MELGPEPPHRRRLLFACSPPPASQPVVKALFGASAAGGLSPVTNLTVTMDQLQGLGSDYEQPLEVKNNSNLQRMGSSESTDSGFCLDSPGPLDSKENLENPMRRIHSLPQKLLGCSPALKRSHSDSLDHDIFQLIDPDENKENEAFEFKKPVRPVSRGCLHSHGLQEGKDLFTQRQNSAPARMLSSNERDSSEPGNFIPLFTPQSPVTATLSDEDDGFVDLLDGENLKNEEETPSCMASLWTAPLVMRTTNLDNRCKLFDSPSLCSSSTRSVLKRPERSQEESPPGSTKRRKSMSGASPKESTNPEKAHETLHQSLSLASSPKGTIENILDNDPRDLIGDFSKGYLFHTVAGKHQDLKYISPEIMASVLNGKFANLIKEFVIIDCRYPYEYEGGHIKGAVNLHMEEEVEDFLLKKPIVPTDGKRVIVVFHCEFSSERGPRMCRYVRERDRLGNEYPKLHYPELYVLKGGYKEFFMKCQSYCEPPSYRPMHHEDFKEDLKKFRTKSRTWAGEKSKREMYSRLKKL
Test: GST-cdc25A phosphatase activity towards p-nitrophenylphosphate (microtitration plate assay)
Format: biochemical
Procedure: One ml assay: 100 μl of GST-cdc25A protein (diluted to an activity of ∂ OD 410 nm=0.3/10 min) were mixed with 100 μl […] (in Tris buffer A) and 700 μl of Tris buffer A. The assay was initiated by addition of 100 μl 500 mM p-NPP (in Tris buffer A). After 10 min incubation at 37° C., the assay was terminated by addition of 40 μl 5 N NaOH and transfer of the tubes to 4° C. Absorbance at 410 nm was then measured and blank values (no GST-cdc25A protein but 10 min incubation) were subtracted.
This assay was then scaled down to 200 μl and conducted semi-automatically in 96-wells microtitration plates, as described in detail below. Each well was filled with 20 μl GST-cdc25A phosphatase, 140 μl Tris buffer A, 20 μl 100 mM DTT (in Tris buffer A); after 15 min equilibration at 37° C., reaction was initiated by addition of 20 μl 500 mM p-NPP (in Tris buffer A). After 60 min incubation absorbance at 405 nm was monitored in a microplate reader; blank values (no GST-cdc25A added) were subtracted.
Microtitration plate assay: 20 μl of GST-cdc25A protein (diluted to an activity of a ∂ OD 405 nm=0.2–0.3/60 min) were mixed with 20 μl 100 mM DTT (in Tris buffer A) and 140 μl of Tris buffer A, in 96-wells microtitration plates (Corning). The plates were preincubated at 37° C. for 15 min in a Denley Wellwarm 1 microplate incubator. The assays were initiated by addition of 20 μl of 500 mM p-NPP (in Tris buffer A). After 60 min incubation at 37° C. absorbance at 405 nm was measured in a bioRad microplate reader. Blank values (no CST-cdc25A protein added) were automatically subtracted.
In a series of experiments various antimitotic compounds currently used in cancer therapy were tested as potential inhibitors of the phosphatase (the Table). Most of them are reported to act as DNA damaging agents, as DNA intercalators, as topoisomerase 2 inhibitors or as compounds interfering with spindle microtubles. […] As a positive control vanadate, a reported inhibitor of tyrosine phosphatases was also tested (Gordon, J. A., 1Methods in Enzymology pp. 447–482 (1991)).

## [Na+].[Na+].[Na+].[O]=[V]([O-])([O-])[O-] [vanadate, sodium orthovanadate]
At concentrations above 500 μM
  inhibition of GST-cdc25A phosphatase: totally inhibits
Concentration not given
  inhibition of cdc25 / GST-cdc25A phosphatase (summary statement): totally inhibit
p-NPP substrate, FIG. 14, read-out: I50, inhibition of GST-cdc25A phosphatase
  IC50: 20 µM
